In general, mass density refers to mass per unit of volume.

This data set in a line: an = ratio of the nth substance listed. The settings on record: 298.15 K, 101 kPa, Liquid, Vibrating tube method.

The structures appear in SMILES notation. ± gives the expanded uncertainty stated by the source.

On to `NCC(=O)O` [2-aminoacetic acid] + O, for which the mass density is, setting by setting: (a1 = 0.1072) 1039.03 ± 0.16 kg/m3; (a1 = 0.1494) 1051.67 ± 0.16 kg/m3; (a1 = 0.1778) 1060.02 ± 0.17 kg/m3; (a1 = 0.2042) 1068.38 ± 0.17 kg/m3; (a1 = 0.2232) 1074.06 ± 0.17 kg/m3; (a1 = 0.2433) 1080.28 ± 0.17 kg/m3.

For the compound `O=C1CNC(=O)CN1` [2,5-diketopiperazine] + O, the mass density (a1 = 0.0025) was found to be 998.08 ± 0.15 kg/m3; the mass density (a1 = 0.0053) is 998.93 ± 0.15 kg/m3; the mass density (a1 = 0.0101) is listed as 1000.45 ± 0.15 kg/m3; the mass density (a1 = 0.0134) amounted to 1001.53 ± 0.15 kg/m3; the mass density (a1 = 0.016) is listed as 1002.32 ± 0.15 kg/m3.

In the case of `O=C(O)CNCC(=O)O` [N-(carboxymethyl)glycine] + O, the mass density is recorded as 1027.42 ± 0.16 kg/m3 (a1 = 0.1079); 1040.98 ± 0.16 kg/m3 (a1 = 0.1403); 1056.44 ± 0.17 kg/m3 (a1 = 0.1768); 1065.68 ± 0.17 kg/m3 (a1 = 0.1982); 1072.61 ± 0.17 kg/m3 (a1 = 0.2153); 1077.43 ± 0.17 kg/m3 (a1 = 0.2301).

(Values after the NIST ThermoML archive (doi:10.1016/j.jct.2012.07.009).)
